Laboratory results as given in patent US20210353566A1, “THE USE OF CHOLINE SUPPLEMENTATION AS THERAPY FOR APOE4-RELATED DISORDERS” (Massachusetts Institute of Technology, priority 2020, published 2021).

Tests used:
[1] = test system: APOE4 astrocytes; assay: Intracellular TAGs and their unsaturation extracted from iPSC-derived astrocytes; format: cell-based, human; settings: CDP-choline 100 μM vs regular media
Description: (§1) Right, quantification of the lipid droplet number per cell (n=4 experiments). […] Lipid were extracted from APOE3 and APOE4 iPSC-derived astrocytes grown in a regular media or the media supplemented with CDP-choline (100 μM). Data is represented as mean±SD, n=3 experiments.

[2] = test system: APOE4 astrocytes; assay: Lipid droplet number (LipidTox) in iPSC-derived APOE4 astrocytes in supplemented media; format: cell-based, human; settings: for LD number per cell: APOE4 astrocytes, supplemented media (CDP-choline 100 μM) vs vehicle
Description: as §1

[3] = test system: APOE4-expressing yeast; assay: Growth rate of APOE4-expressing yeast in minimal CSM media; format: cell-based; settings: ethanolamine 1 mM, choline chloride 1 mM, choline bitartrate 100 μg/ml, compared to APOE3 strain
Description: The data was normalized to the growth of untreated yeast strain expressing GFP (control). Data are represented as mean±SD, n=3. […] Data is represented as mean±SD, n=6 (Student's t-test, ns p>0.05; *** p≤0.001).
In order to explore APOE4-mediated lipid dysregulation in an unbiased manner, yeast were built and interrogated that express APOE3 or APOE4 in to the secretory pathway.

[4] = test system: EFAD mice
Description: FIGS. 7A-7C show graphs depicting mice weight over time. FIG. 7A depicts mice fed a high choline diet (3.4 g/kg choline chloride) and minimum recommended choline diet (0.7 g/kg choline chloride) for one month. FIG. 7B depicts mice fed a sub-recommended choline diet (0.1 g/kg choline chloride) compared to standard choline (1.1 g/kg choline chloride) for one month. FIG. 7C depicts mice fed a high choline diet (3.4 g/kg choline chloride) and minimum recommended choline diet (0.7 g/kg choline chloride) for three months.
The “EFAD” APOE knock-in mouse were selected, where the endogenous Apoe locus is replaced with the human isoform of APOE2, APOE3, or APOE4 in 5×FAD mice, and where APOE isoform effects on disease progression have been documented (Tai et al, 2017). Custom chow containing the National Research Council (NRC) minimum, (0.7 g/kg choline chloride) and NRC maximum (3.4 g/kg choline chloride) was manufactured and fed these to EFAD mice for 4-12 weeks (˜84 days).

[5] = test system: APOE4 microglia; settings: interferon gamma
Description: Data is represented as mean±SD, n=3-5 (ANOVA with multiple comparisons, * p≤0.05, ** p≤0.01).
Many AD risk factors are expressed in microglia including APOE, which along with TREM2, coordinates the transition from homeostatic to disease-associated state (Kraseman et al, 2017; Keren-Shaul et al, 2017).

[6] = test system: APOE3 astrocytes; assay: Lipid droplet quantification (LipidTox) in iPSC-derived astrocytes treated with oleic acid; format: cell-based, human; settings: oleic acid 20 μM vs vehicle
Description: (§2) FIG. 1A is a schematic depicting the use of isogenic astrocytes derived from patient-derived iPSCs and the lipidomic analysis. FIG. 1B is a heatmap showing the fold change (log 2) between APOE4/APOE4 and APOE3/APOE3 in abundance of phospholipids (˜150 lipid species, upper panel) and triglycerides (˜120 species, lower panel). FIG. 1C is a graph presenting a fold change difference of the number of unsaturated bonds in fatty acids attached to triglycerides (TAGs). […] Data is represented as mean±SD (Student's t-test, **** p≤0.0001). FIG. 1E is a fluorescent microscopy images of the APOE3/APOE3 and APOE4/APOE4 astrocytes stained with an anti-Perilipin 2 antibody. Right, quantification of the Perilipin-2 foci per cell (each point (n) is an average of four wells, n=4). Data is represented as mean±SD (Student's t-test, **** p≤0.0001). FIG. 1F is a quantification of lipid droplets in astrocytes treated with vehicle (control) or with oleic acid (20 μM) (n=4 experiments).
(§3) APOE is expressed in several organs, with the highest expression in the liver, followed by the brain. In the brain, astrocytes and to some extent microglia are the major cell types that express APOE in the brain (Kim, Basak et al. 2009). It was hypothesized that APOE4-mediated lipid dysregulation contributes to its role as a disease risk factor. […]

[7] = test system: APOE4 astrocytes; assay: as above; format: cell-based, human; settings: oleic acid 20 μM vs vehicle
Description: as §2, §3

[8] = chow 0.7 g/kg and 3.4 g/kg choline chloride, 4-12 weeks
[9] = diets 0.1, 0.7, 1.1, 3.4 g/kg choline chloride, one or three months

C[N+](C)(C)CCOP(=O)(O)OP(=O)([O-])OC[C@H]1O[C@@H](n2ccc(N)nc2=O)[C@H](O)[C@@H]1O [CDP-choline]
intracellular TAG levels [1]: normalizes
unsaturation of TAGs (number of unsaturated bonds in fatty acids) [1]: normalizes
LD number per cell [2]: significant decrease in the LD number, down to the levels found in APOE3-expressing astrocytes

C[N+](C)(C)CCO.O=C([O-])C(O)C(O)C(=O)O (stereo not shown) [choline bitartrate]
growth of APOE4 yeast in supplemented media [3]: sufficient to suppress the APOE4-associated growth defect

C[N+](C)(C)CCO.[Cl-] [choline chloride]
general health [4, 8]: general health appeared normal
toxicity [4, 8]: no clear indication of toxicity
body condition or appetite [4, 9]: no significant defects
mice weight over time [4, 9]: gained appropriate weight
lipid droplet volume, APOE4 vs APOE3 microglia ([5]; supplemented 65 μM Choline Chloride vs low 15 μM, extended culture): no difference is detected
IL-1b induction ([5]; supplemented 250 μM Choline Chloride vs low 65 μM): rescued
growth of APOE4 yeast in supplemented media [3]: sufficient to suppress the APOE4-associated growth defect
LD number per cell [2]: significant decrease in the LD number, down to the levels found in APOE3-expressing astrocytes
lipid droplet accumulation, dose dependence ([2]; choline chloride 1 μM, 10 μM, 100 μM in astrocyte media, extended culture 14 days): improves lipid droplet accumulation in a dose-dependent manner

NCCO [ethanolamine]
growth of APOE4 yeast in supplemented media [3]: did not influence growth

CCCCCCCC/C=C\CCCCCCCC(=O)O [oleic acid]
increase of lipid droplet content [6]: ~1.5 fold
lipid droplet accumulation [7]: ~3 fold
